Laboratory results published in patent US20250011316A1, “PEROXIREDOXIN 3 INHIBITORS AND METHODS OF USE FOR TREATING CANCER” (Wake Forest University Health Sciences, priority 2022, published 2025).
In brackets after ≈: the same amount, converted by molar mass.

How the values were obtained:
[1] = Solubility Assay (HPLC); format: physicochemical; conditions: HEPES/NaCl buffer, aqueous with cosolvent or surfactant or cyclodextrin, kinetic from dmso stock; 20 mM HEPES, 100 mM NaCl, pH 7.5, 18-24 hours at ambient temperature; read-out: Solubility
In short: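 Compound from 20 mM DMSO stock added to 20 mM HEPES, 100 mM NaCl, pH 7.5, rotated 18-24 h at ambient temperature, then centrifuged 10 min at 20,000×g to remove solids. Supernatant diluted in DMSO and quantified by HPLC peak area against the closest of 200 μM and 20 μM standards, corrected for dilution.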

[2] = target: T1, purified human PRX3 (Homo sapiens, UniProt P30048); assay: Biochemical PRX3 Inhibition Assay (non-reducible crosslink by SDS PAGE + single adduct by MALDI-TOF MS); conditions: 100 μM PRX3 with TRX2/thioredoxin reductase/NADPH system and hydrogen peroxide, 1-2 hr at 37° C.
T1 construct: made in house
T1 sequence (P30048 62-256): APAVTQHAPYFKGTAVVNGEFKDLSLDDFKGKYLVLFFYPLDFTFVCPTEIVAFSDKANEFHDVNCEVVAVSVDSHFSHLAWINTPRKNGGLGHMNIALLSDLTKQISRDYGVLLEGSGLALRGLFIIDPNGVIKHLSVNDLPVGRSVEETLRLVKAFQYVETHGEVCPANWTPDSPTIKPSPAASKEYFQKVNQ
In short: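 Purified human PRX3 (100 µM) cycled with TRX2, thioredoxin reductase, NADPH regenerating system and H2O2, incubated with compound 1–2 h at 37 °C. Non-reducible crosslink quantified by densitometry of SDS-PAGE (~46 vs ~23 kDa) after DTT; single-adduct fraction from MALDI-TOF MS peak intensities, background-corrected against DMSO.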

[3] = tested on: human SK—OV-3 ovarian cancer cells; assay: Cellular Activity Assay (cytotoxicity, crystal violet); format: cell-based; conditions: SK—OV-3 cells, treated for 48 hr, 0.1-100 μM, crystal violet absorbance at 540 nm
In short: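 SK-OV-3 cells plated, allowed 24 h recovery, then treated 48 hr with compound at 0.1-100 μM. Live cells were fixed (3.0% formaldehyde), stained with 0.1% crystal violet and read at 540 nm. EC50 was fitted after normalizing to matched-DMSO controls.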

[4] = tested on: Enterococcus hirae (ATCC #10541); assay: Antimicrobial Activity Assay (MIC / growth inhibition); format: cell-based; conditions: ATCC10541; Enterococcus hirae; analogs tested at 20 μM final concentration
Description: The overnight growth was then diluted into growth media to make a single solution of E. hirae with a final optical density at 600 nm=0.02 AU. A 20 mM stock solution of Thiostrepton in DMSO was made and used to make multiple dilutions of TS in DMSO. Each TS dilution (0.1 mL) was then added to a test tube containing 10 mL of the diluted E. hirae and grown at 37° C. overnight while shaking at 180 rpm. The next morning, each tube was visually inspected to determine if the cells grew. Final concentrations tested were 0.120, 0.090, 0.075, 0.060, 0.045, 0.030, and 0.015 μM TS. […] Three replicates were made on three separate days (n=9). […] For TS analogs, the dilute E. hirae was treated with 20 μM final concentration of each analog (three replicates each). […] DMSO was used as a positive control (complete cell growth) and 20 μM thiostrepton was used as a negative control.

Row | SMILES | solubility [1] | PRX3 Inhibition (Crosslink + Mono-adduct) [2] | MIC [4] | EC50 ([3]; Homo sapiens) | EC50 ([3]; Homo sapiens, SK-OV-3, 48 h) | EC50 [3]
1 | C=C(NC(=O)c1csc(N2CCC(NC(=O)OC(C)(C)C)CC2)n1)C(=O)NC(=C)C(=O)OC [Compound 12, Methyl 2-(2-(2-(4-((tert-butoxycarbonyl)amino)piperidin-1-yl)thiazole-4-carboxamido)acrylamido)acrylate] | < 100 µM | +++ (>90%) | > 20 µM | 1 to 10 µM |  | 
2 | C=C(NC(=O)c1csc(N2CCC(NC(=O)CCCCCNC(=O)OC(C)(C)C)CC2)n1)C(=O)NC(=C)C(=O)OC [Compound 13, Methyl 2-(2-(2-(4-(6-((tert-butoxycarbonyl)amino)hexanamido)piperidin-1-yl)thiazole-4-carboxamido)acrylamido)acrylate] | 100 to 1000 µM (≈ 59.3 to 593 µg/mL) | +++ (>90%) | > 20 µM |  | 1 to 10 µM | 
3 | C=C(NC(=O)c1csc(N2CCC(C(=O)NCCNC(=O)OC(C)(C)C)CC2)n1)C(=O)NC(=C)C(=O)OC [Compound 15, Methyl 2-(2-(2-(4-((2-((tert-butoxycarbonyl)amino)ethyl)carbamoyl)piperidin-1-yl)thiazole-4-carboxamido)acrylamido)acrylate] | < 100 µM | +++ (>90%) | > 20 µM | 1 to 10 µM |  | 
4 | C=C(NC(=O)c1csc(-c2ccc(CNC(=O)CCCCCNC(=O)OC(C)(C)C)cc2)n1)C(=O)NC(=C)C(=O)OC [Compound 16, Methyl 2-(2-(2-(4-((6-((tert-butoxycarbonyl)amino)hexanamido)methyl)phenyl)thiazole-4-carboxamido)acrylamido)acrylate] | < 100 µM | +++ (>90%) | > 20 µM |  |  | 10 to 25 µM
5 | C=C(NC(=O)c1csc(N2CCC[C@H](NC(=O)OC(C)(C)C)C2)n1)C(=O)NC(=C)C(=O)OC [Compound 20, Methyl (S)-2-(2-(2-(3-((tert-butoxycarbonyl)amino)piperidin-1-yl)thiazole-4-carboxamido)acrylamido)acrylate] | < 100 µM | +++ (>90%) | > 20 µM | 1 to 10 µM |  | 
6 | C=C(NC(=O)c1csc(-c2ccc(NC(=O)CCCCCN=[N+]=[N-])cc2)n1)C(=O)NC(=C)C(=O)OC [Compound 25, Methyl 2-(2-(2-(4-(6-azidohexanamido)phenyl)thiazole-4-carboxamido)acrylamido)acrylate] | < 100 µM | ++ (50-90%) | > 20 µM | 10 to 25 µM |  | 
7 | C=C(NC(=O)c1csc(-c2cccc(COCCOC)c2)n1)C(=O)NC(=C)C(=O)OC [Compound 27, Methyl 2-(2-(2-(3-((2-methoxyethoxy)methyl)phenyl)thiazole-4-carboxamido)acrylamido)acrylate] | < 100 µM | +++ (>90%) | > 20 µM | 1 to 10 µM |  | 
8 | C=C(NC(=O)c1csc(-c2ccc(COC(=O)NCc3ccccc3)cc2)n1)C(=O)NC(=C)C(=O)OC [Compound 30, Methyl 2-(2-(2-(4-(((benzylcarbamoyl)oxy)methyl)phenyl)thiazole-4-carboxamido)acrylamido)acrylate] | < 100 µM | + (5-50%) | > 20 µM | 25 to 100 µM |  | 

The next lines start with results.

Row | solubility [1] | PRX3 Inhibition (Crosslink + Mono-adduct) [2] | MIC [4] | SMILES | EC50 ([3]; Homo sapiens) | EC50 ([3]; Homo sapiens, SK-OV-3, 48 h) | EC50 [3]
9 | < 100 µM | +++ (>90%) | > 20 µM | C=C(NC(=O)c1csc(-c2cccc(C(=O)OC(C)(C)C)c2)n1)C(=O)NC(=C)C(=O)OC [Compound 14, Tert-butyl 3-(4-((3-((3-methoxy-3-oxoprop-1-en-2-yl)amino)-3-oxoprop-1-en-2-yl)carbamoyl)thiazol-2-yl)benzoate] | 25 to 100 µM |  | 
10 | 100 to 1000 µM (≈ 36.6 to 366 µg/mL) | +++ (>90%) | > 20 µM | C=C(NC(=O)c1csc(N2CCOCC2)n1)C(=O)NC(=C)C(=O)OC [Compound 17, Methyl 2-(2-(2-morpholinothiazole-4-carboxamido)acrylamido)acrylate] | 10 to 25 µM |  | 
11 | 100 to 1000 µM (≈ 46.6 to 466 µg/mL) | + (5-50%) | > 20 µM | C=C(NC(=O)c1csc(N2CCN(C(=O)OC(C)(C)C)CC2)n1)C(=O)NC(=C)C(=O)OC [Compound 18, Tert-butyl 4-(4-((3-((3-methoxy-3-oxoprop-1-en-2-yl)amino)-3-oxoprop-1-en-2-yl)carbamoyl)thiazol-2-yl)piperazine-1-carboxylate] | 25 to 100 µM |  | 
12 | < 100 µM | +++ (>90%) | > 20 µM | C=C(NC(=O)c1csc(N2CCC(NC(=O)CCCCCN=[N+]=[N-])CC2)n1)C(=O)NC(=C)C(=O)OC [Compound 19, Methyl 2-(2-(2-(4-(6-azidohexanamido)piperidin-1-yl)thiazole-4-carboxamido)acrylamido)acrylate] | 1 to 10 µM |  | 
13 | < 100 µM | +++ (>90%) | > 20 µM | C=C(NC(=O)c1csc(N2CCC(N(C)C(=O)OCC)CC2)n1)C(=O)NC(=C)C(=O)OC [Compound 21, Methyl 2-(2-(2-(4-((ethoxycarbonyl)(methyl)amino)piperidin-1-yl)thiazole-4-carboxamido)acrylamido)acrylate] | 1 to 10 µM |  | 
14 | < 100 µM | +++ (>90%) | > 20 µM | C=C(NC(=O)c1csc(N2CCC(CNC(=O)OCC)CC2)n1)C(=O)NC(=C)C(=O)OC [Compound 22, Methyl 2-(2-(2-(4-(((ethoxycarbonyl)amino)methyl)piperidin-1-yl)thiazole-4-carboxamido)acrylamido)acrylate] | 1 to 10 µM |  | 
15 | < 100 µM | +++ (>90%) | > 20 µM | C=C(NC(=O)c1csc(N2CC[C@@H](NC(=O)OCC)C2)n1)C(=O)NC(=C)C(=O)OC [Compound 23, Methyl (R)-2-(2-(2-(3-((ethoxycarbonyl)amino)pyrrolidin-1-yl)thiazole-4-carboxamido)acrylamido)acrylate] | 1 to 10 µM |  | 
16 | < 100 µM | ++ (50-90%) | > 20 µM | C=C(NC(=O)c1csc(-c2ccc(OCCOC)cc2)n1)C(=O)NC(=C)C(=O)OC [Compound 24, Methyl 2-(2-(2-(4-(2-methoxyethoxy)phenyl)thiazole-4-carboxamido)acrylamido)acrylate] | 1 to 10 µM |  | 
17 | 100 to 1000 µM (≈ 48.9 to 489 µg/mL) | ++ (50-90%) | > 20 µM | C=C(NC(=O)c1csc(-c2ccc(CNC(=O)OCCOC)cc2)n1)C(=O)NC(=C)C(=O)OC [Compound 26, Methyl 2-(2-(2-(4-((((2-methoxyethoxy)carbonyl)amino)methyl)phenyl)thiazole-4-carboxamido)acrylamido)acrylate] | 1 to 10 µM |  | 
18 | < 100 µM | +++ (>90%) | > 20 µM | C=C(NC(=O)c1csc(N2CCCC(C(=O)NCC(C)C)C2)n1)C(=O)NC(=C)C(=O)OC (stereo not shown) [Compound 28, Methyl 2-(2-(2-(3-(isobutylcarbamoyl)piperidin-1-yl)thiazole-4-carboxamido)acrylamido)acrylate] | 1 to 10 µM |  | 
19 | 100 to 1000 µM (≈ 50.8 to 508 µg/mL) | +++ (>90%) | > 20 µM | C=C(NC(=O)c1csc(N2CCC(C(=O)NCCCOC(C)C)CC2)n1)C(=O)NC(=C)C(=O)OC [Compound 29, Methyl 2-(2-(2-(4-((3-isopropoxypropyl)carbamoyl)piperidin-1-yl)thiazole-4-carboxamido)acrylamido)acrylate] | 1 to 10 µM |  | 
